“Also recorded” adds a separate entry of the source.

From patent publication US20110178052A1, “9-ALPHA ESTRATRIENE DERIVATIVES AS ER-BETA SELECTIVE LIGANDS FOR THE PREVENTION AND TREATMENT OF INTESTINAL CANCER” (Bayer Schering Pharma Aktiengesellschaft, priority 2008, published 2011) come the findings set out here.

Holding throughout (type): in vivo, rat
For one assay, the system named is OVX rats. As to the kind of experiment: Uterine wet weights of ovariectomized rats after 3 weeks of treatment. Conditions: for uterine wet weights: s.c., 3 weeks, E2 4 μg, GEN 10 mg, ALPHA 10 μg, BETA I 100 μg kg-1 b.wt d-1, vs OVX. As for the experimental part:
(§1) Post pubertal animals were ovariectomized (OVX) at the age of three months and weighing 200-220 g. After 14 days of endogenous hormonal decline the animals were treated with the test compounds or vehicle for three weeks. The animals were randomly allocated to treatment and vehicle groups (n=6). E2 (4 μg kg-1 b.wt d-1), GEN (10 mg kg-1 b.wt d-1), ALPHA (10 μg kg-1 b.wt d-1), BETA 1 (100 μg kg-1 b.wt d-1), BETA II (5-15-50 μg kg-1 b.wt d-1) and ICI (3 mg kg-1 b.wt d-1) were dissolved in dimethylsulfoxide (DMSO) (200 μl/KG b. wt/d) and corn oil (800 μl/KG b. wt/d) for s.c. administration.
(§2) Animals were sacrificed by decapitation after light anesthesia with CO2 inhalation. Uteri and intestinal tissues were prepared free of fat and were fixed in 4% formalin (for immunohistochemical analysis) and liquid nitrogen (for molecular biology). The uterine wet weights were determined.

For assay [1], the system named is PCNA. As to the kind of experiment: Western Blot analysis of PCNA in ileal mucosa. Conditions: for PCNA expression of intestinal mucosa cells, Western Blot densitometric evaluation: OVX rats, s.c., 3 weeks, E2 4 μg, GEN 10 mg, ALPHA 10 μg, BETA I 100 μg kg-1 b.wt d-1. As for the experimental part: as §1
(§3) Ileal mucosa and rectal colon were dissected from the animals and immediately stored in liquid nitrogen. Pooled frozen tissue (n=6 animals per group) was powdered and homogenized in a buffer (623.5 nM Tris pH 8 EDTA) containing enzyme inhibitors (5 mg/ml aprotonin, 5 mg/ml leupeptin, 1 mg/ml pepstatin-A, 5 mg/ml antipain, 100 mM pefac in 0.5 M EDTA, pH 8). Protein concentrations were determined by the method of Lowry (Dc Protein Assay, Bio-Rad). Equal amounts of sample (40 μg protein) were loaded on a Protean II ready Gel (Bio-Rad).
(§4) After electrophoresis and separation, samples were transferred onto nitrocellulose membranes and blocked with 5% BSA in Phosphate (100 mM)-buffered saline solution (pH 7.4) at room temperature for 2 hours. The immobilized proteins were quantitatively detected using specific antibodies for actin and GAPDH (A5060 and G8795, Sigma-Aldrich, Steinheim, Germany), PCNA Clone PC 10 (Dako, Glostrup, Denmark), M30 Cytodeath (ALX-804-590, Alexis, San Diego, Calif., USA) and active caspase-3 (557035, BD Pharmingen, Heidelberg, Germany).
(§5) Polyclonal Swine Anti-Rabbit Immunglobulins/HRP and Polyclonal Rabbit Anti-Mouse Immunglobulins/HRP (P0217 and P0260, Dako, Glostrup, Denmark) were used as species-specific HRP-conjugated secondary antibodies.
(§6) Blot signals were visualized by the chemoluminescent POD-Substrate (Lumi-Light Plus, Roche Diagnostics, Mannheim, Germany) and a Fluorchem Luminescent Imager (Alpha Innotech, CA, USA).
(§7) The protein bands were quantified by densitometry using ImageJ 1.38. To account for in homogenous protein loading of the slots we calculated the ratio of […] (PCNA, M30, active caspase-3).
A general note: Immunoblotting shows a protein as a band on a membrane.

The next assay deals with active caspase-3. As to the kind of experiment: Western Blot analysis of active caspase-3 in ileal mucosa. Conditions: for activation of caspase-3: OVX rats, s.c., 3 weeks, E2 4 μg, GEN 10 mg, ALPHA 10 μg, BETA I 100 μg kg-1 b.wt d-1. As for the experimental part: as §1, §3, §4, §5, §6, §7
The test system of assay [2] is PCNA. The experiment in a line: Immunohistochemical staining of PCNA in ileal mucosa cells. The following applies: OVX rats, s.c., 3 weeks; E2 4 μg, GEN 10 mg, ALPHA 10 μg, BETA I 100 μg kg-1 b.wt d-1. As for the experimental part: as §1, §2
(§8) Formalin-fixed intestinal samples were embedded in paraffin, sliced with a microtome (7 μm sections). After deparaffinization, antigen retrieval was performed in an incubator for 20 h at 60° C. in 0.01 M citrate buffer pH 6.0.
Subsequently, endogenous peroxidases were blocked for 20 min. with 3% hydrogen peroxide and the slides were covered with a 0,25% Triton X-100 solution for 10 min.
The primary antibody, PCNA Clone PC10 (Dako, Glostrup, Denmark) was applied at dilutions of 1:100, respectively.
After 1 h incubation with the primary antibodies, samples were incubated with the secondary antibody: Polyclonal Goat Anti-Mouse Immunglobulins/Biotinylated (Dako, Glostrup, Denmark).
Afterwards the sections were covered with Streptavidin-biotinylated Horseradish Peroxidase Complex (GE Healthcare, Little Chalfont Buckinghamshire, UK) at a dilution of 1:400. The samples were developed with DAB for 10 min. For negative controls, slides were immunostained in the absence of the primary antibody.
Quantitative analysis was performed in complete crypts of normal mucosa. Brown nuclear staining was indicative of a positive PCNA signal.

A further assay has as its system PCNA mRNA. As to the kind of experiment: PCNA mRNA expression in the intestinal mucosa. The following applies: OVX rats, FIG. 3B. As for the experimental part:
as §1

Another assay relates to cytokeratin 18 (M 30). The experiment in a line: Western Blot analysis of cytokeratin 18 cleavage (M30) in colon. The following applies: OVX rats, BETA II at 5 μg. As for the experimental part: as §1
Ileal mucosa and rectal colon were dissected from the animals and immediately stored in liquid nitrogen. […] Protein concentrations were determined by the method of Lowry (Dc Protein Assay, Bio-Rad). Equal amounts of sample (40 μg protein) were loaded on a Protean II ready Gel (Bio-Rad).
After electrophoresis and separation, samples were transferred onto nitrocellulose membranes and blocked with 5% BSA in Phosphate (100 mM)-buffered saline solution (pH 7.4) at room temperature for 2 hours. The immobilized proteins were quantitatively detected using specific antibodies for actin and GAPDH (A5060 and G8795, Sigma-Aldrich, Steinheim, Germany), PCNA Clone PC 10 (Dako, Glostrup, Denmark), M30 Cytodeath (ALX-804-590, Alexis, San Diego, Calif., USA) and active caspase-3 (557035, BD Pharmingen, Heidelberg, Germany). […]

The next assay concerns intestinal mucosa. The experiment in a line: Doses effect of BETA II on the intestinal mucosa. As for the experimental part:
as §1
BETA II was tested at 5, 15 and 50 μg kg-1 b.wt d-1.
Ileal mucosa and rectal colon were dissected from the animals and immediately stored in liquid nitrogen. […] Protein concentrations were determined by the method of Lowry (Dc Protein Assay, Bio-Rad). Equal amounts of sample (40 μg protein) were loaded on a Protean II ready Gel (Bio-Rad). […]
as §7

Assay [3] relates to PCNA. As to the kind of experiment: Immunohistochemical staining of PCNA in colonic mucosa cells. Conditions: OVX rats, immunohistochemistry of rectal colonic cross sections; BETA II at 5 μg/Kg. On the procedure:
as §1, §2, §8
Subsequently, endogenous peroxidases were blocked for 20 min. with 3% hydrogen peroxide and the slides were covered with a 0,25% Triton X-100 solution for 10 min. […]
Quantitative analysis was performed in complete crypts of normal mucosa. […]

[4] abbreviates: OVX rats co-treated with BETA I 100 μg and ICI 3 mg kg-1 b.wt d-1.
The mark [5] stands for this setting: BETA I and BETA II at the same concentration (5 μg), pooled ileal tissue, FIG. 6.

As for `C=C[C@@]12CCc3cc(O)ccc3[C@H]1CC[C@@]1(C)[C@H]2CC[C@@H]1O` [BETA I, 8β-vinyl-estra-1,3,5(10)-triene-3,17β-diol], the uterine wet weights entry with OVX rats is given as “no significant uterus stimulation”. Further, the “PCNA expression of intestinal mucosa cells, Western Blot densitometric evaluation” value with PCNA [1] (pooled ileal tissue) is “reduced”. In addition, in the assay on active caspase-3 (pooled ileal tissue), the “activation of caspase-3” value is “dramatically promoted”. In addition, the “PCNA protein expression, immunostaining of ileal cross sections” value (shortened to “PCNA protein expression, immunostaining”) with PCNA [2] is “significantly reduced”. Further, the “PCNA mRNA Expression in the intestinal Mucosa” value with PCNA mRNA is “diminished”.

In the case of `C[C@]12CC[C@@H]3c4ccc(O)cc4C[C@@H](CCCCCCCCC[S+]([O-])CCCC(F)(F)C(F)(F)F)[C@H]3[C@@H]1CC[C@@H]2O` (some centres unmarked) [ICI], the “effect of co-administration of ICI on anti-proliferative effect (PCNA) of BETA I” value in the assay on PCNA [1] (setting [4]) was “antogonization”. Besides, the “effect of co-administration of ICI on pro-apoptotic effect (active caspase-3) of BETA I” value with active caspase-3 (setting [4]) is given as “antogonization”.

On to `C[C@]12CC[C@@H]3c4ccc(O)cc4CC[C@H]3[C@@H]1C[C@H]1OC(=O)C[C@]12O` [ALPHA, 3,17-dihydroxy-19-nor-17α-pregna-1,3,5(10)-triene-21,16α-lactone], for which the uterine wet weights result with OVX rats is given as “strongly increased”. The “PCNA expression of intestinal mucosa cells, Western Blot densitometric evaluation” value in the assay with PCNA [1] (pooled ileal tissue) is reported as “elevation”. Further, the “activation of caspase-3” value in the assay on active caspase-3 (pooled ileal tissue) is on record as “moderately”. Besides, the “PCNA protein expression, immunostaining” value in the assay with PCNA [2] is given as “slightly induced”.

`C=C[C@]12CC[C@]3(C)[C@@H](F)[C@H](O)C[C@H]3[C@@H]1CCc1cc(O)ccc12` [BETA II, 17β-Fluoro-9α-vinyl-estra-1,3,5(10)-triene-3,16α-diol]: the “cleavage of cytokeratin 18 (M 30) in colonic mucosa cells” value in the assay on cytokeratin 18 (M 30) was “dramatically induced; also recorded: significant stimulation”. The “effect on the uterus weight” value in the assay on OVX rats (BETA II at 5 μg/kg) is on record as “does not show any measurable effect”. Further, the “down regulation of the expression of the proliferation marker PCNA compared with BETA I” value with PCNA [1] (setting [5]) is “improved effect”. For the same molecule, in the assay with active caspase-3 (setting [5]), the “activation of the caspase-3 compared with BETA I” value is on record as “at a higher level”. In the assay with intestinal mucosa (BETA II at 5 μg/kg vs BETA I), the “activity relative to BETA I on effects regulating the intestinal homeostasis” value is reported as “about 20 times”. Further, the “doses effect in the intestinal mucosa” value in the assay with intestinal mucosa (OVX rats, BETA II tested at 5, 15 and 50 μg kg-1 b.wt d-1) is “strongest effect at lowest tested dose of 5 μg/kg”. Also, the “PCNA expression in colonic mucosa cells” value in the assay on PCNA [3] is “reduced”.

As for `O=c1c(-c2ccc(O)cc2)coc2cc(O)cc(O)c12` [GEN, 4′,5,7-trihydroxyisoflavone], in the assay on OVX rats, the uterine wet weights result is “faint, although significant increase”. Further, in the assay on PCNA [1] (pooled ileal tissue), the “PCNA expression of intestinal mucosa cells, Western Blot densitometric evaluation” value was “reduced”. For the same molecule, the “activation of caspase-3” value with active caspase-3 (pooled ileal tissue) was “moderately”. Besides, in the assay on PCNA [2], the “PCNA protein expression, immunostaining” value is “significantly reduced”. Further, the “PCNA mRNA Expression in the intestinal Mucosa” value in the assay on PCNA mRNA is given as “diminished”. Moreover, the “PCNA expression in colonic mucosa cells” value with PCNA [3] is “reduced”.

As for `C[C@]12CC[C@@H]3c4ccc(O)cc4CC[C@H]3[C@@H]1CC[C@@H]2O` [E2, 17β-estradiol], the “cleavage of cytokeratin 18 (M 30) in colonic mucosa cells” value with cytokeratin 18 (M 30) is reported as “only marginally increased”. The uterine wet weights result with OVX rats is on record as “strong stimulation”. Further, in the assay on PCNA [1] (pooled ileal tissue), the “PCNA expression of intestinal mucosa cells, Western Blot densitometric evaluation” value was “not affected”. Moreover, the “activation of caspase-3” value with active caspase-3 (pooled ileal tissue) is “remained on a low level”. Moreover, the “PCNA protein expression, immunostaining” value in the assay with PCNA [2] is recorded as “slightly induced”.
